# Measured values: patent US10203334B2, “Methods and compositions related to nucleic acid binding assays” (Nubad, LLC, priority 2012, dated 2019)
# Read-outs that look alike come from different tables or passages of the source.
# What was measured:
# [1] = pKa of free probe from pH-dependent absorbance spectra; type: physicochemical
# Method: The mechanism for change in fluorescence of F-Neo upon binding to A-site rRNA oligonucleotide (SEQ ID No. 1) using UV absorption spectroscopy was investigated. Effect of pH on the absorbance spectra of 3.0 mM fluorescein-neomycin in 20 mM MOPSO, 0.4 mM EDTA, 50 mM NaCl at the indicated pH values were studied.
# With increasing pH, fluorescein-neomycin undergoes a transition between mono-anion and di-anion species. Fluorescein-neomycin concentration was 10 μM in 100 mM NaCl, 10 mM SC, 0.5 mM EDTA. As indicated by its absorbance spectra in FIG. 8A, the F-neo transitions from a mono-anion to a di-anion with increasing pH. FIG. 8B compares the absorbance spectra between the mono-anion and di-anion species of fluorescein neomycin. […] The absorbance peak of about 490 nm in FIGS. 8A and 8B is consistent with the phenolate species of fluorescein. The pKa for the equilibrium of the phenol and phenolate forms of F-neo (42a) was measured by evaluating the absorbance spectrum as a function of pH and shown to be 6.84. […] When monitoring the absorption spectrum in the presence of the A-site RNA (SEQ ID No. 1), a reduction in A490 consistent with the change in pKa was observed. […] This shift in pKa causes a change in the fluorescence intensity of F-neo (42a). […]
# [2] = tested on: E. coli ribosomal A-site oligonucleotide (SEQ ID No. 1); test: 96-well F-neo displacement HTS on ribosomal A-site; type: binding; details: 96-well plate reader; 0.30 mM F-neo and 0.3 mM A-site oligonucleotide
# From the text: [drawing 24] where FHNeo represents the protonated form of F-neo. F(-)Neo, upon binding to nucleic acids such as DNA or RNA, is destabilized by the nucleic acid backbone negative potential, shifting the equilibrium towards FH, making F-neo a weaker acid, raising the pKa, which is what we observe upon binding to the A-site. For the A-site targeted assay, we calculated the Z' factor (Z=1-3(2.7+2.8)/(414-267)=0.89. […] Provided is a detailed example for the development of a HTS by the displacement of a fluorescene-neomycin (F-neo (42a)) from rRNA A-site oligonucleotide (SEQ ID No. 1) using a 96 well plate format and a fluorescent plate reader. […] This HTS involves the displacement of a fluorescene-neomycin (F-neo (42a)) by potential RNA binding molecules in a 96 well plate format using a fluorescent plate reader. […] F-neo based RNA binding assays have been performed using a fluorescence spectrophotometer with a 96-well plate reader and results recorded in FIG. 4. […] Fo is defined as the baseline fluorescence intensity of the RNA/F-neo complex and F is the intensity with added drug. The difference between the fluorescence intensity baseline of F-neo/A-site complex and complex with added drug (F-Fo) indicates the extent of the competition of drug for the binding site, this allows the relative binding affinities of aminoglycosides to be established. […]
smiles,measurement,setting,value
"NCC1O[C@H](OC2C(O)C(OC3C(O)[C@H](N)CC(N)[C@H]3O[C@H]3OC(CN)[C@@H](O)C(O)C3N)O[C@@H]2CSCCNC(=O)CCSCC(=O)Nc2ccc(-c3c4ccc(=O)cc-4oc4cc(O)ccc34)c(C(=O)O)c2)C(N)C(O)[C@@H]1O (stereo partly drawn) [F-neo (42a), Neomycin-Fluorescein Conjugate]",pKa,"[1]; buffer: 100 mM NaCl, free, 10 μM, 100 mM NaCl, 10 mM SC, 0.5 mM EDTA at 25° C., read-out: pKa",6.57
same,pKa,"[1]; free probe, absorbance spectrum as a function of pH, read-out: pKa for the equilibrium of the phenol and phenolate forms",6.84
same,reduction in fluorescence intensity on addition of A-site,[2],2 fold
